# Data: patent publication US12344583B2, “Solid psilocin salts” (LOBE SCIENCES LTD., priority 2022, dated 2025)
# Where “and” joins values, the source holds several entries; their conditions need not be identical. Identical values can stand only once. Entries after “also recorded” stand apart in the source; their conditions may differ.
# Experiments:
# healthy subjects = assay: Phase one open-label single-dose study of psilocin mucate capsules: MMSE and mood assessment by psychiatrist; conditions: single oral capsule 4.05 mg psilocin mucate (equivalent to 2 mg psilocin)
# [1] = Stability studies on psilocin mucate capsule (appearance, HPLC assay and impurities, TM-022-0392); assay type: physicochemical
# Method: Additional stability studies were performed on the solid psilocin form psilocin mucate (also known as psilocin mucic acid salt or conjugate or psilocin galactaric acid salt or conjugate) capsule.
# Appearance was evaluated by viewing of the sample on a watchglass over a black and white background.
# Assay conditions for Test/Method TM-022-0392 assessing stability and impurities were as follows: • Mobile phase: MPA: 945 mL water, 5 mL H3PO4, pH to 5.7 with • NaOH; MPB: Acetonitrile • Diluent: 80:20 Water: MeOH • Standard: 0.4 mg/mL Psilocin Mucic RS in Diluent • Sample: 0.4 mg/mL Psilocin Mucic API in Diluent HPLC Conditions are depicted in Table 3.
# Calculations were against a bracketing external standard.
# Identity of psilocin mucate was verified by ultraviolet (UV) assessment, wherein the UV spectrum of the main peak in the standard matched the UV spectrum of the main peak in the sample and by retention time wherein the retention time ratio was 0.98-1.02.
compound,measurement,setting,value
CN(C)CCc1c[nH]c2cccc(O)c12.O=C(O)[C@@H](O)[C@H](O)[C@H](O)[C@@H](O)C(=O)O [psilocin mucate],FEELING STATUS,healthy subjects; one statement per subject,"Less anxious, better mood, increase their appetite; also recorded: Feel little beet happier, better energy; also recorded: Feel calm, less thoughts, happier mood; also recorded: Euphoric, better mood, it helps with life stress; also recorded: Euphories, better mood, sleepy, feel time is; also recorded: Sleepy, better thoughts, less worried in general; also recorded: Did not feel change in mood but feeling cold; also recorded: More relaxed, want to drink sweet tea, better; also recorded: Better mood, feels hyper sexual"
same,MMSE,"healthy subjects; one value per subject, below 25 expected for a hallucinogenic substance",29 (2×) and 30 (3×) and 28 (3×) and 27 (2×)
same,Total Impurities,[1]; 7 Months,<0.05%
same,"Impurities TM-22-0392, individual impurities","[1]; 7 Months, all impurities, area percent",All <0.05%
same,Assay TM-22-0392 (% Label Claim),"[1]; 7 Months, specification 90.0-110.0%","101,7%"
same,Total Impurities,[1]; Initial,0.08%
same,"Impurities TM-22-0392, individual impurities","[1]; Initial, impurity at RRT I.12, area percent",RRT I.12/0.08%
